Measurements: patent publication US11141444B2, “Lactobacillus crispatus KBL693 strain and use thereof” (KO Biolabs, Inc., priority 2018, dated 2021)

Tested on: RBL-2H3 cells
Assay: Inhibition of degranulation (β-hexosaminidase co-secreted with histamine) in RBL-2H3 cells
Assay type: cell-based
Conditions: RBL-2H3, IgE + DNP-HAS induced degranulation; 120 μL culture supernatant or ketotifen 20 μg/mL; negative control (Siraganian buffer) = 1.0
Description: It has been reported that, in an allergic reaction, histamine is expressed in tissues, causing an inflammatory reaction, and suppressing histamine secretion leads to alleviation of allergic symptoms by blocking the reaction by histamine. The present invention attempted to select probiotic strains that can show effects on the alleviation and treatment of allergic reactions through inhibition of histamine secretion. To this end, a total of eight Lactobacillus strains derived from human vagina were evaluated for the ability to suppress histamine secretion. […]
To identify the activity of β-hexosaminidase, 25 μL of the supernatant collected in Example 1-3 was transferred to each well of a 96-well plate, and then 25 μL of each substrate (p-nitrophenyl N-acetyl-D-[…]) was added thereto, and followed by a reaction at 37° C. in the 5% CO2 incubator for 90 minutes. Then, 200 μL of stop solution (Na2CO3/NaHCO3) was added to stop the reaction and then absorbance was measured at 405 nm. The absorbance when treated with each type of Lactobacillus crispatus was compared to the negative control group and converted to percentage to show the level of inhibition of the degranulation.

## CN1CCC(=C2c3ccccc3CC(=O)c3sccc32)CC1 [Ketotifen, ketotifen]
  β-hexosaminidase (fold change): 0.2569 fold change
